In patent publication US11873298B2, “Compounds and uses thereof” (JANSSEN PHARMACEUTICA NV, priority 2017, dated 2024):

Assays:
SCD1 = molecular target: T1, SCD1 (Homo sapiens, UniProt O00767); assay: Growth inhibition of humanized yeast strain expressing SCD1 as sole desaturase; format: cell-based; conditions: humanized yeast strain, 40 h
T1 construct: host or cells: S. cerevisiae ole1Δ strain (W303 pdr1Δ pdr3Δ background), plasmid pRS316 with TDH3 promoter and CYC1 terminator
T1 sequence (O00767 1-359): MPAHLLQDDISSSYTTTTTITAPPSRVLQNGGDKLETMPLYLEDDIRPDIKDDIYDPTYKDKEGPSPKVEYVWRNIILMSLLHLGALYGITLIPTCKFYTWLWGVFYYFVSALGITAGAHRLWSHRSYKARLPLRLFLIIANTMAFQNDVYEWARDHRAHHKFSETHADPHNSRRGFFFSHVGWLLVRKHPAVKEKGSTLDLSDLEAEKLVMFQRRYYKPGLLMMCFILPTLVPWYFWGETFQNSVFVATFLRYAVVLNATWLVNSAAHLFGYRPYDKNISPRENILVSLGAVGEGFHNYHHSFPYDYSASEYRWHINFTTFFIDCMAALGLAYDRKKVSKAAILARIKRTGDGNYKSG
Summary of the method: (§1)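 Plasmid-complemented ole1Δ yeast, drug-pump deleted (pdr1Δ pdr3Δ), depend solely on the introduced Ole1, SCD1 or SCD5 desaturase. Compounds are added from DMSO to cells in uracil-free galactose medium, 2× density 0.02, and OD600 is read after 24 h or 40 h respectively.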

SCD5 = molecular target: T2, SCD5 (Homo sapiens, UniProt Q86SK9); assay: Growth inhibition of humanized yeast strain expressing SCD5 as sole desaturase; format: cell-based; conditions: humanized yeast strain, 40 h
T2 construct: host or cells: S. cerevisiae ole1Δ strain (W303 pdr1Δ pdr3Δ background), plasmid pRS316 with TDH3 promoter and CYC1 terminator
T2 sequence (Q86SK9 1-330): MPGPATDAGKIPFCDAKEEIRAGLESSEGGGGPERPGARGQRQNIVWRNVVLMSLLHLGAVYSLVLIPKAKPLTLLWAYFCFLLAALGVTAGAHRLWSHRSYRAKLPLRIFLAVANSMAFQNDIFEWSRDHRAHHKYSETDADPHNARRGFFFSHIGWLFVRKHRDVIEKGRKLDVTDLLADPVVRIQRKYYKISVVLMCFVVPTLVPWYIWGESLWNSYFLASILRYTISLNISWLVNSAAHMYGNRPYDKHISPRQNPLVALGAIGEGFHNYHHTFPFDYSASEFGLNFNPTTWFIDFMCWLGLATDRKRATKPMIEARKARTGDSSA
Summary of the method: as §1

**Q.** What does the source list for CC(C)(C)OC(=O)N1CCC(c2noc(-c3ccc(=O)n(C4COC4)c3)n2)CC1 [Compound 1113]?
**A.** IC50 (SCD1): > 45 µM; IC50 (SCD5): 494 nM

**Q.** CC(C)(C)OC(=O)N1CCC(c2noc(-c3ccc(=O)n(C4CCOC4)c3)n2)CC1 (stereo not drawn) [Compound 1114] was tested. Which IC50 (SCD1) did it give?
**A.** > 45 µM

**Q.** And the IC50 (SCD5)?
**A.** 116 nM

**Q.** How did the IC50 (SCD1) turn out when O=C(C1CC1)N1CCC(c2noc(-c3ccnc(NC4COC4)c3)n2)CC1 [Compound 1115] was run?
**A.** > 45 µM

**Q.** What about the IC50 (SCD5) of the same compound?
**A.** 10600 nM

**Q.** How did the IC50 (SCD1) turn out when O=C(N1CCC(c2noc(-c3ccnc(NC4COC4)c3)n2)CC1)C1(F)CC1 [Compound 1116] was run?
**A.** > 45 µM

**Q.** What about the IC50 (SCD5) of the same compound?
**A.** 1410 nM

**Q.** For O=C(C1CC1)N1CCN(c2noc(-c3ccnc(NC4COC4)c3)n2)CC1 [Compound 1117], which IC50 (SCD1) is on record?
**A.** > 45 µM

**Q.** What about the IC50 (SCD5) of the same compound?
**A.** > 45000 nM

**Q.** With O=C(C1CC1)N1CCN(c2noc(-c3ccnc(Cl)c3)n2)CC1 [Compound 1118] as the compound, how does the IC50 (SCD1) read?
**A.** > 45 µM

**Q.** What about the IC50 (SCD5) of the same compound?
**A.** > 45000 nM

**Q.** How did the IC50 (SCD1) turn out when CC(C)C(=O)N1CCN(c2noc(-c3ccnc(Cl)c3)n2)CC1 [Compound 1119] was run?
**A.** > 45 µM

**Q.** What about the IC50 (SCD5) of the same compound?
**A.** > 45000 nM

**Q.** For O=C(N1CCN(c2noc(-c3ccnc(Cl)c3)n2)CC1)C1(F)CC1 [Compound 1120], which IC50 (SCD1) is on record?
**A.** > 45 µM

**Q.** What about the IC50 (SCD5) of the same compound?
**A.** 32800 nM

**Q.** For CC(C)(C)OC(=O)N1CCC(c2noc(-c3ccn(C4COC4)c(=O)c3)n2)CC1 [Compound 1121], which IC50 (SCD1) is on record?
**A.** > 45 µM

**Q.** And the IC50 (SCD5)?
**A.** 15500 nM

**Q.** For O=C(N1CCC(c2noc(-c3ccnc(Cl)c3)n2)CC1)C1(F)CC1 [Compound 1122], which IC50 (SCD1) is on record?
**A.** > 45 µM

**Q.** And the IC50 (SCD5)?
**A.** 13200 nM

**Q.** With O=C(C1CC1)N1CCC(c2noc(-c3ccnc(Cl)c3)n2)CC1 [Compound 1123] as the compound, how does the IC50 (SCD1) read?
**A.** > 45 µM

**Q.** What about the IC50 (SCD5) of the same compound?
**A.** 6640 nM

**Q.** Which results are given for CC(C)C(=O)N1CCC(c2nc(-c3ccnc(F)c3)no2)CC1 [Compound 1124]?
**A.** IC50 (SCD1): > 45 µM; IC50 (SCD5): > 45000 nM

**Q.** What does the source list for CN(c1cc(-c2nc(C3CCN(C(=O)C4CC4)CC3)no2)ccn1)C1COC1 [Compound 1125]?
**A.** IC50 (SCD1): > 45 µM; IC50 (SCD5): 523 nM

**Q.** Which IC50 (SCD1) does the source give for CC(C)C(=O)N1CCC(c2noc(-c3ccc4oc(=O)n(C5COC5)c4c3)n2)CC1 [Compound 1126] here?
**A.** > 45 µM

**Q.** And the IC50 (SCD5)?
**A.** 2740 nM

**Q.** With O=C(C1CCC1)N1CCC(c2noc(-c3ccc4oc(=O)n(C5COC5)c4c3)n2)CC1 [Compound 1127] as the compound, how does the IC50 (SCD1) read?
**A.** > 45 µM

**Q.** What about the IC50 (SCD5) of the same compound?
**A.** 1470 nM

**Q.** With O=C(C1CC1)N1CCC(c2nc(-c3ccnc(F)c3)no2)CC1 [Compound 1128] as the compound, how does the IC50 (SCD1) read?
**A.** > 45 µM

**Q.** And the IC50 (SCD5)?
**A.** > 45000 nM

**Q.** CC(C)C(=O)N1CCC(c2noc(-c3ccnc(Cl)c3)n2)CC1 [Compound 1129] was tested. Which IC50 (SCD1) did it give?
**A.** > 45 µM

**Q.** And the IC50 (SCD5)?
**A.** > 45000 nM

**Q.** Which results are given for CC1(OC(=O)N2CCC(c3noc(-c4ccnc(Cl)c4)n3)CC2)CC1 [Compound 1130]?
**A.** IC50 (SCD1): > 45 µM; IC50 (SCD5): 9900 nM

**Q.** For O=C(N1CCC(c2noc(-c3ccc4oc(=O)n(C5COC5)c4c3)n2)CC1)C1(F)CC1 [Compound 1131], which IC50 (SCD1) is on record?
**A.** > 45 µM

**Q.** And the IC50 (SCD5)?
**A.** 207 nM

**Q.** How did the IC50 (SCD1) turn out when O=C(c1ccccc1F)N1CCC(c2noc(-c3ccnc(Cl)c3)n2)CC1 [Compound 1132] was run?
**A.** > 45 µM

**Q.** And the IC50 (SCD5)?
**A.** > 45000 nM

**Q.** How did the IC50 (SCD1) turn out when CC(C)C(=O)N1CCN(c2noc(-c3ccnc(NC4COC4)c3)n2)CC1 [Compound 1133] was run?
**A.** > 45 µM

**Q.** And the IC50 (SCD5)?
**A.** > 45000 nM

**Q.** CC(C)(C)OC(=O)N1CCC(/C(N)=N/OC(=O)c2ccc3cnn(C4COC4)c3c2)CC1 [Compound 1134] was tested. Which IC50 (SCD1) did it give?
**A.** > 45 µM

**Q.** What about the IC50 (SCD5) of the same compound?
**A.** 26.9 nM

**Q.** Which results are given for O=C(C1CC1)N1CCC(c2noc(-c3ccc4oc(=O)n(C5COC5)c4c3)n2)CC1 [Compound 1135]?
**A.** IC50 (SCD1): > 45 µM; IC50 (SCD5): 188 nM

**Q.** How did the IC50 (SCD1) turn out when CC1(OC(=O)N2CCC(c3noc(-c4ccnc([C@H]5CCOC5)c4)n3)CC2)CC1 [Compound 1136] was run?
**A.** > 45 µM

**Q.** And the IC50 (SCD5)?
**A.** 10 nM

**Q.** What does the source list for CC1(OC(=O)N2CCC(c3noc(-c4ccnc([C@@H]5CCOC5)c4)n3)CC2)CC1 [Compound 1137]?
**A.** IC50 (SCD1): > 45 µM; IC50 (SCD5): 52.2 nM

**Q.** With CC(C)C(=O)N1CCC(c2noc(-c3cnc4cnn(C5COC5)c4c3)n2)CC1 [Compound 1138] as the compound, how does the IC50 (SCD1) read?
**A.** > 45 µM

**Q.** What about the IC50 (SCD5) of the same compound?
**A.** 761 nM

**Q.** For O=C(OC1CC1)N1CCC(c2noc(-c3cnc4cnn(C5COC5)c4c3)n2)CC1 [Compound 1139], which IC50 (SCD1) is on record?
**A.** > 45 µM

**Q.** And the IC50 (SCD5)?
**A.** 96 nM
